Test results taken from ChEMBL document CHEMBL3272267, “Synthesis and antiinflammatory and hypnotic activity of 5-alkoxy-3-(N-substituted carbamoyl)-1-phenylpyrazoles” (J Med Chem, 1977).

How the values were obtained:
Rattus norvegicus = experiment: Antiinflammatory activity in Wistar rat assessed as inhibition of carrageenan-induced hind paw edema at 100 mg/kg, po administered as gum arabic suspension 30 mins prior to carrageenin injection measured 3 hrs post-carrageenin injection; type: functional
Mus musculus = experiment: Hypnotic activity in ip dosed ddN mouse assessed as loss of righting reflex administered as gum arabic suspension measured within 60 mins; type: functional
[1] = Acute toxicity in po dosed mouse; type: organism-based; settings: in vivo

Row | Compound | inhibition in vivo at 100 mg/kg (Rattus norvegicus) [%] | HD50 (Mus musculus) [mg/kg] | LD50 [1] [mg/kg]
1 | COc1cc(C(=O)N2CCCCC2)nn1-c1ccccc1 | 28.2 | – | –
2 | COc1cc(C(N)=O)nn1-c1ccccc1 | 34.3 | – | –
3 | CNC(=O)c1cc(OC)n(-c2ccccc2)n1 | 57.9 | – | –
4 | COc1cc(C(=O)N(C)C)nn1-c1ccccc1 | 47.5 | 90 | 385
5 | CCCCNC(=O)c1cc(OC)n(-c2ccccc2)n1 | 20.6 | – | –
6 | COc1cc(C(=O)NC(C)C)nn1-c1ccccc1 | 24.8 | – | –
7 | COc1cc(C(=O)N2CCCC2)nn1-c1ccccc1 | 29.2 | – | –
8 | COc1cc(C(=O)N2CCOCC2)nn1-c1ccccc1 | 73.8 | – | –
9 | CCN(CC)CCNC(=O)c1cc(OC)n(-c2ccccc2)n1 | 54.1 | – | –
10 | COc1cc(C(=O)N2CCN(C)CC2)nn1-c1ccccc1 | 56.8 | – | –
11 | COc1cc(C(=O)N2CCN(CCO)CC2)nn1-c1ccccc1 | 10.3 | – | –
12 | COc1cc(C(=O)Nc2ccccc2C(=O)O)nn1-c1ccccc1 | 24.1 | – | –
13 | COc1cc(C(=O)Nc2cccc(C(F)(F)F)c2)nn1-c1ccccc1 | 20.9 | – | –
14 | COc1cc(C(=O)N(C)c2ccc(C)cc2)nn1-c1ccccc1 | 22.3 | – | –
15 | CCOc1cc(C(=O)N(C)C)nn1-c1ccccc1 | 65.8 | 26 | 330
16 | CCOc1cc(C(=O)N2CCOCC2)nn1-c1ccccc1 | 35.4 | – | –
17 | CCCOc1cc(C(=O)N(C)C)nn1-c1ccccc1 | 26.2 | 27 | 320
18 | CC(C)Oc1cc(C(=O)N(C)C)nn1-c1ccccc1 | 43.9 | 49 | 525
19 | CCCOc1cc(C(=O)N2CCOCC2)nn1-c1ccccc1 | 23.5 | – | –
20 | CCCCOc1cc(C(N)=O)nn1-c1ccccc1 | 26.5 | 94 | 360
21 | CCCCOc1cc(C(=O)NC)nn1-c1ccccc1 | 65 | 48 | 325
22 | CCCCOc1cc(C(=O)NCC)nn1-c1ccccc1 | 0 | 44 | 400
23 | CCCCOc1cc(C(=O)N(C)C)nn1-c1ccccc1 | 18.7 | 33 | 460
24 | C=CCNC(=O)c1cc(OCCCC)n(-c2ccccc2)n1 | 4.4 | – | –

Row | Compound | inhibition in vivo at 100 mg/kg (Rattus norvegicus) [%] | HD50 (Mus musculus) [mg/kg] | LD50 [1] [mg/kg]
25 | CCCCOc1cc(C(=O)NCCC)nn1-c1ccccc1 | 51.2 | 39 | 650
26 | CCCCOc1cc(C(=O)NCCO)nn1-c1ccccc1 | 61.2 | – | –
27 | CCCCNC(=O)c1cc(OCCCC)n(-c2ccccc2)n1 | 43.3 | 70 | 370
28 | CCCCOc1cc(C(=O)N(CC)CC)nn1-c1ccccc1 | 44.1 | – | –
29 | CCCCOc1cc(C(=O)NC(C)C)nn1-c1ccccc1 | 15.8 | – | –
30 | CCCCOc1cc(C(=O)N2CCCC2)nn1-c1ccccc1 | 17.6 | – | –
31 | CCCCOc1cc(C(=O)N2CCCCC2)nn1-c1ccccc1 | 15.6 | – | –
32 | CCCCOc1cc(C(=O)N2CCOCC2)nn1-c1ccccc1 | 32.9 | – | –
33 | CCCCOc1cc(C(=O)NCCN(CC)CC)nn1-c1ccccc1 | 23.6 | – | –
34 | CCCCOc1cc(C(=O)NCCCN(C)C)nn1-c1ccccc1 | 29.8 | – | –
35 | CCCCOc1cc(C(=O)N2CCN(C)CC2)nn1-c1ccccc1 | 32.3 | – | –
36 | CCCCOc1cc(C(=O)N2CCN(CCO)CC2)nn1-c1ccccc1 | 41.3 | – | –
37 | CCCCOc1cc(C(=O)Nc2ccccc2C(=O)O)nn1-c1ccccc1 | 0 | – | –
38 | CCCCOc1cc(C(=O)N2CCN(C(=O)c3cc(OCCCC)n(-c4ccccc4)n3)CC2)nn1-c1ccccc1 | 0 | – | –
39 | CCCCCOc1cc(C(=O)N(C)C)nn1-c1ccccc1 | 20 | 63 | 420
40 | CC(C)CCOc1cc(C(=O)N(C)C)nn1-c1ccccc1 | 25.3 | 47 | 350
41 | CCCCOc1cc(C(=O)N(C)CCN(C)C)nn1-c1ccccc1 | 28.2 | – | –
42 | CCCCOc1cc(C(=O)N(C)CCN(CC)CC)nn1-c1ccccc1 | 29.5 | – | –
43 | CCCCOc1cc(C(=O)N2CCN(CCOC(C)=O)CC2)nn1-c1ccccc1 | 43.9 | – | –
44 | CCCCOc1cc(C(=O)N2CCN(CCOC(=O)CC)CC2)nn1-c1ccccc1 | 0 | – | –
45 | CCCCOc1cc(C(=O)N2CCN(CCOC(=O)c3ccccc3)CC2)nn1-c1ccccc1 | 5.9 | – | –
46 | Cc1c(N(C)C)c(=O)n(-c2ccccc2)n1C [AMINOPYRINE] | 66 | – | –
47 | CN1C(=O)NC(=O)C(C)(C2=CCCCC2)C1=O (stereo not drawn) [HEXOBARBITAL] | – | 91 | 745
48 | CCCCC1C(=O)N(c2ccccc2)N(c2ccccc2)C1=O [PHENYLBUTAZONE] | 54.5 | – | –
